Key:
Format in all cases: cell-based
IL-1α = test: In vitro expression of IL-1α in human primary monocytes; details: DEX 2.5, 0.25, 0.025 μg/ml; methotrexate 50, 5, 0.5 μg/ml
Protocol: (§2) In order to assess the in vitro expression of IL-1α and IL-8, human primary monocytes were incubated with various concentrations of DEX (2.5, 0.25, and 0.025 μg/ml) and methotrexate (50, 5, and 0.5 μg/ml).

IL-8 = test: In vitro expression of IL-8 in human primary monocytes; details: DEX 2.5, 0.25, 0.025 μg/ml; methotrexate 50, 5, 0.5 μg/ml
Protocol: as §2

[1] = system: human monocyte-derived macrophage (Mo/MØs); test: Morphology of Mo/MØ monolayers on polyetherurethane (OM, SEM); details: Mo/MØs cultured on PEU with DSP in culture media
Protocol: Human and rabbit blood was used as sources of the cells in these experiments. Blood was anticoagulated with 2 units/ml sodium heparin (Upjohn Co., Kalamazoo, MI). Mononuclear cells (lymphocytes, monocytes) were isolated within 15 minutes by a one-step density gradient centrifugation procedure using Isopaque-1077 (a density gradient solution) according to a modified Boyum's method (Boyum et al., Blood Separation and Plasma Fractionation, 217-239, Wiley-Liss, Inc. (1991)). The mononuclear cells were harvested and washed twice with cold Hanks balanced salt solution (HBSS) without Ca^2+ and Mg^2+ to minimize cell aggregation. The cells were then resuspended in standard media (RPMI-1640, 10% Fetal bovine serum, […], 10 Ul/ml Penicillin-G, and 0.1 mg/ml Streptomycin). The cell suspension was seeded into several plastic tissue culture flasks and incubated in the presence of 5% CO2 at 37° C. for 1 hour (Ackerman et al., J. Immunol., 20, 1372-1374 (1978)). After this incubation, adherent (monocytes) were gently scrapped from the surface and resuspended in standard media. […]
(§1) The polymer films (0.12 mm thick) were sufficiently thin and transparent to enable visualization of cells on their surfaces during cell culturing using optical microscopy (OM) with an Olympus BX40 light microscope. […] The polymer surfaces were also evaluated using SEM following the 10-day treatment with FeCl2. […]

human Mo/MØs = test: Surface analysis (OM/SEM) for environmental stress cracking after macrophage/FeCl2 treatment; details: AS PEU exposed to Mo/MØs plus DSP followed by FeCl2
Protocol: Macrophage Treatment. The PEU film specimens (AS and non-AS) in the microwell plates were covered with either freshly isolated human or rabbit monocyte-derived macrophage (Mo/MØs), or human lymphocytes (3×10^5 cells per well) and cultured in a standard media (RPMI-1640, 10% Fetal bovine serum, […], 10 Ul/ml Penicillin-G and 0.1 mg/ml Streptomycin). A 49-day macrophage treatment was conducted under standard conditions (i.e., presence of 5% CO2, and 95% humidity at 37° C.). […] Two blank conditions were also studied. In one, culture media only was placed into the microwells. The other was prepared with no culture media and stored in the dark. All polymer specimens were incubated for the time of the first treatment. Samples in triplicate were removed after various time periods for hydroperoxide determination. After a 49-day incubation, specimens were prepared in triplicate for the second step of the sample treatment protocol.
FeCl2 treatment. […]
as §1

| Compound | IL-1 inhibition (IL-1α) | IL-8 inhibition (IL-8) | cell size of Mo/MØ monolayers (OM) [1] | surface damage (SEM) after FeCl2 (human Mo/MØs) |
| --- | --- | --- | --- | --- |
| CN(Cc1cnc2nc(N)nc(N)c2n1)c1ccc(C(=O)N[C@@H](CCC(=O)O)C(=O)O)cc1 [methotrexate] | higher rate of IL-1 and IL-8 inhibition | higher rate of IL-1 and IL-8 inhibition |  |  |
| C[C@@H]1C[C@H]2[C@@H]3CCC4=CC(=O)C=C[C@]4(C)[C@@]3(F)[C@@H](O)C[C@]2(C)[C@@]1(O)C(=O)COP(=O)(O)O [DSP, dexamethasone sodium phosphate] |  |  | no increase in cell size | only very occasional pits |

— US7658727B1, “Implantable medical device with enhanced biocompatibility and biostability” (Medtronic, Inc, priority 1998, dated 2010)
